Target: T1, ComFB (FB; Bsu FB) (Bacillus subtilis, UniProt P39146)
T1 sequence (P39146 1-98): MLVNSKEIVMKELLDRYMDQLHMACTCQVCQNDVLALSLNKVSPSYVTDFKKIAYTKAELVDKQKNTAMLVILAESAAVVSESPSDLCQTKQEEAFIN
Assay: isothermal titration calorimetry, one-site model
Assay type: binding

Kd [µM] | Structure (SMILES)
69.1 ± 139 | Nc1ncnc2c1ncn2[C@@H]1O[C@@H]2COP(=O)(O)O[C@H]3[C@@H](O)[C@H](n4cnc5c(N)ncnc54)O[C@@H]3COP(=O)(O)O[C@H]2[C@H]1O [c-di-AMP]
0.14 ± 0.05 | Nc1nc2c(ncn2[C@@H]2O[C@@H]3CO[P@](=O)(O)O[C@H]4[C@@H](O)[C@H](n5cnc6c(=O)[nH]c(N)nc65)O[C@@H]4CO[P@](=O)(O)O[C@H]3[C@H]2O)c(=O)[nH]1 [c-di-GMP]
